Counter-ions that a name gives are not always drawn.
Assays:
mice [1] = experiment: Sleep-inducing activity: capacity to increase the sleep time induced by barbital; assay type: in vivo; conditions: for % Activity (sleep) Dosage 100 mg/kg: product 100 mg/Kg i.p., 15 min after barbital 150 mg/Kg i.v.; for DE50: product i.p. 15 min after barbital 150 mg/Kg i.v., dosage efficacy 50
Description: Sleep-inducing Activity in Mice
Fifteen minutes after the administration of barbital (150 mg/Kg, i.v.), the mice were treated with the product of the study at an initial dose of 100 mg/Kg (i.p.).

mice [2] = experiment: General anaesthetic activity in mice, I.V. administration; assay type: in vivo; conditions: i.v. caudal vein; for Duration: duration of sleep; for Start (s) / Start: start of sleep
Description: General Anaesthetic Activity
The general anaesthetic activity was study in mice, injecting the product of the study in the caudal vein. The start and duration time of sleep were recorded. The results for some of the products of the patent are shown in Table 3 and it can be seen that they show a clear anaesthetic activity with respect to the reference compound (Propofol), with the animals recovering later.

mice [3] = experiment: Muscular relaxant (miorelaxant) activity in the Irwing mouse test; assay type: in vivo; conditions: 80 mg/kg i.p.; for % muscular relaxation at a time of: 1 H: 1 H after administration; for % muscular relaxation at a time of: 2 H: 2 H after administration; for % muscular relaxation at a time of: 3 H: 3 H after administration; for % muscular relaxation at a time of: 4 H: 4 H after administration; for % muscular relaxation at a time of: 5 H: 5 H after administration; for % muscular relaxation at a time of: ½ H: ½ H after administration
Description: Muscular Relaxant Activity
The mice received the products under study at a dosage of 80 mg/kg, via I.p., and at different times after administration (½, 1, 2, 3, 4 and 5 hours) the body tone and the abdominal tone was evaluated looking at the muscular tension compared to the control animals.

mice [4] = experiment: Analgesic activity: protection from contortions induced by phenylbenzoquinone; assay type: in vivo; conditions: for DE50 (mg/kg, o.a.): o.a. (orally); for DE50 (mg/kg, o.a.) / DE50 (mg/kg, s.c.): phenylbenzoquinone 5 mg/kg i.p.
Description: The analgesic activity of the products of the invention have been studied by evaluation of their effect in the test of contortions induced by phenylbenzoquinone in mice, following the method described by Siegmund E., and coworkers (Proc. Soc. Exp. Biol. Med. 1957, 95: 729-731).
The mice received the products of the study, a different dosage levels, and one later they received an injections i.p. of 5 mg/kg of phenylbenzoquinone. The portions of the mice were registered for the following fifteen minutes and compared the contortions of the control group. The DE50 (dosage efficacy 50) of the pound of Example 4 is shown.

COc1ccnc(N2CCN(C(=O)c3ccsc3)CC2)n1 [Example 13, 4-methoxy-2-[4-(3-thienylcarbonyl)-1-piperazinyl]pyrimidine chlorohydrate]
% Activity (sleep) Dosage 100 mg/kg (mice [1]): 77%
DE50 (mice [1]): 41.3 mg/kg

CC(C)c1cccc(C(C)C)c1O [Propofol, reference compound]
Duration (mice [2]; dosage 80 mg/kg): 0 min
Start (s) (mice [2]; dosage 80 mg/kg): No
Duration (mice [2]; dosage 106 mg/kg): 6.2 min
Start (mice [2]; dosage 106 mg/kg): 30 s
Duration (mice [2]; dosage 120 mg/kg): 3.9 min
Start (mice [2]; dosage 120 mg/kg): 20 s
% muscular relaxation at a time of: 1 H (mice [3]): 100%
% muscular relaxation at a time of: 2 H (mice [3]): 70%
% muscular relaxation at a time of: 3 H (mice [3]): 0%
% muscular relaxation at a time of: 4 H (mice [3]): 0%
% muscular relaxation at a time of: 5 H (mice [3]): 0%
% muscular relaxation at a time of: ½ H (mice [3]): 100%

CC(=O)Oc1ccccc1C(=O)O [Aspirin, reference compound]
DE50 (mg/kg, o.a.) (mice [4]): 120 mg/kg
DE50 (mg/kg, s.c.) (mice [4]): 84 mg/kg

COc1ccnc(N2CCN(C(=O)c3ccco3)CC2)n1 (as salt: HCl) (hydrate or solvate) [Example 2, 2-[4-(2-furylcarbonyl)-1-piperazinyl]-4-methoxypyrimidine chlorohydrate]
melting point: 162 to 164 °C

COc1ccnc(N2CCN(C(=O)c3cccs3)CC2)n1 [Example 4, 4-methoxy-2-[4-(2-thienylcarbonyl)-1-piperazinyl]pyrimidine chlorohydrate]
Duration (mice [2]; dosage 40 mg/kg): 1.3 min
Start (mice [2]; dosage 40 mg/kg): 15 s
Duration (mice [2]; dosage 80 mg/kg): 7.4 min
Start (s) (mice [2]; dosage 80 mg/kg): Immediate
DE50 (mg/kg, o.a.) (mice [4]): 72 mg/kg
DE50 (mg/kg, s.c.) (mice [4]): 48 mg/kg
analgesic activity compared with aspirin (in words) (mice [4]; subcutaneously and orally): better analgesic activity
% Activity (sleep) Dosage 100 mg/kg (mice [1]): 100%
DE50 (mice [1]): 8.7 mg/kg
% muscular relaxation at a time of: 1 H (mice [3]): 90%
% muscular relaxation at a time of: 2 H (mice [3]): 10%
% muscular relaxation at a time of: 3 H (mice [3]): 0%
% muscular relaxation at a time of: 4 H (mice [3]): 0%
% muscular relaxation at a time of: 5 H (mice [3]): 0%
% muscular relaxation at a time of: ½ H (mice [3]): 100%

COc1ccnc(N2CCN(C(=O)c3ccco3)CC2)n1 [Example 2, 2-[4-(2-furylcarbonyl)-1-piperazinyl]-4-methoxypyrimidine chlorohydrate]
Duration (mice [2]; dosage 40 mg/kg): 0.6 min
Start (mice [2]; dosage 40 mg/kg): 12 s
Duration (mice [2]; dosage 80 mg/kg): 5.3 min
Start (s) (mice [2]; dosage 80 mg/kg): Immediate
% Activity (sleep) Dosage 100 mg/kg (mice [1]): 93%
DE50 (mice [1]): 14.4 mg/kg

COc1ccnc(N2CCN(C(=O)C3CC3)CC2)n1 [Example 9]
% Activity (sleep) Dosage 100 mg/kg (mice [1]): 67%
DE50 (mice [1]): 28.1 mg/kg

COc1ccnc(N2CCN(C(=O)c3ccsc3)CC2)n1 (as salt: HCl) (hydrate or solvate) [Example 13, 4-methoxy-2-[4-(3-thienylcarbonyl)-1-piperazinyl]pyrimidine chlorohydrate]
melting point: 154 to 156 °C

CCCC(C)(COC(N)=O)COC(N)=O [Meprobamate, reference compound]
% Activity (sleep) Dosage 100 mg/kg (mice [1]): 54%
DE50 (mice [1]): 84.5 mg/kg

COc1ccnc(N2CCN(C(=O)c3cccs3)CC2)n1 (as salt: HCl) (hydrate or solvate) [Example 4, 4-methoxy-2-[4-(2-thienylcarbonyl)-1-piperazinyl]pyrimidine chlorohydrate]
melting point: 143 to 145 °C

Cc1sc2ccccc2c1Cl
melting point: 175 to 176 °C

— US6372746B1, “Derivatives of acyl-piperazinyl-pyrimidines, preparation thereof and application as medicaments” (Laboratorios Del Dr. Esteve, S.A., priority 1997, dated 2002)
